Patent US20040260084A1, “Novel c-3 s/o-and s/n formaldehe acetal derivatives of cephalosporins and their use as antibotics” (priority 2001, published 2004)

Assays:
[1] = tested on: Escherichia coli DSM 1103; experiment: MIC, agar dilution (DIFCO Bacto Nutrient Agar); assay type: cell-based
Method: (§1) The plates were then inoculated with a bacterial suspension obtained by diluting an overnight culture (37° C.) in DIFCO Bacto Nutrient Broth (pH 6.8) with sterile 1% NaCl (1:1000) using a 19 pin inoculator (Mast Diagnostics). MIC's […] were determined 18 h after incubation at 37° C.
(§2) Inoculum effect after inoculation with an non-diluted overnight culture (in comparison to Table 1). MIC's (μ/ml) were determined 18 h after incubation at 37° C.

Staph. aureus resistant = experiment: MIC, agar dilution (DIFCO Bacto Nutrient Agar); assay type: cell-based
Method: as §1, §2

Staph. aureus DSM 1104 = experiment: MIC, agar dilution (DIFCO Bacto Nutrient Agar); assay type: cell-based
Method: as §1, §2

Escherichia coli TEM 1 = experiment: MIC, agar dilution (DIFCO Bacto Nutrient Agar); assay type: cell-based
Method: as §1, §2

Staph. aureus 25768 = experiment: MIC, agar dilution (DIFCO Bacto Nutrient Agar); assay type: cell-based
Method: as §1, §2

E. coli 3981 TEM-1 = experiment: In vivo activity, experimental systemic infection in mice; conditions: Escherichia coli
Method: In vivo activity (ED50) was determined. Mice were infected intraperitoneally with ca. […] of E. coli 3981 TEM-1. Untreated animals died within 48 h after infection. Compounds were administered by oral or subcutaneous route a first time 10 min after infection and a second time 4 h later. The 50% effective dose (ED50) was calculated by the Spearman-Kärber method from the percentages of animals surviving to day 7 at each dose.

[2] = Chemical stability, half-life of hydrolysis by UV spectroscopy; assay type: physicochemical; conditions: 37° C.
Method: The half-lives (h) of hydrolysis was determined at 37° C. by UV spectroscopy in physiological phosphate buffer and in physiological NaCl solution containing 0.01 N HCl.

[3] = Blood serum stability, agar diffusion test with Escherichia coli TEM 1; assay type: in vitro ADME; conditions: sterile bovine serum (OXOID), 37° C.
Method: The stability in blood serum was determined microbiologically using agar diffusion test with Escherichia coli TEM 1. The compounds I were incubated with sterile bovine serum (OXOID) at 37° C. At 0 h, 1 h, 2 h and 4 h intervals aliquot samples were spotted and remaining amounts of active antibiotic were calculated from the inhibition diameters (18-30 mm) in comparison with those (15-30 mm) obtained with 30 μg, 15 μg, 7.5μ and 3.75 μg of antibiotic.

[4] = Escherichia coli DSM 1103, inoculum ca. 10^4, 18 h at 37° C.
[5] = Escherichia coli DSM 1103, inoculum ca. 10^7 (non-diluted overnight culture), 18 h at 37° C.
[6] = inoculum ca. 10^4, 18 h at 37° C.
[7] = inoculum ca. 10^7 (non-diluted overnight culture), 18 h at 37° C.
[8] = Staph. aureus DSM 1104, inoculum ca. 10^4, 18 h at 37° C.
[9] = Staph. aureus DSM 1104, inoculum ca. 10^7 (non-diluted overnight culture), 18 h at 37° C.
[10] = Escherichia coli TEM 1, inoculum ca. 10^4, 18 h at 37° C.
[11] = Escherichia coli TEM 1, inoculum ca. 10^7 (non-diluted overnight culture), 18 h at 37° C.
[12] = Staph. aureus 25768, inoculum ca. 10^4, 18 h at 37° C.
[13] = Staph. aureus 25768, inoculum ca. 10^7 (non-diluted overnight culture), 18 h at 37° C.
[14] = pH 2, physiological NaCl solution containing 0.01 N HCl
[15] = pH 7.4, physiological phosphate buffer

Compound: COCSC1=C(C(=O)[O-])N2C(=O)[C@@H](NC(=O)/C(=N\OC)c3csc(N)n3)[C@H]2SC1.[K+] [Cephalosporin 1a, potassium (6R,7R)-7-[(Z)-2-(2-amino-thiazol-4-yl)-2-methoximino-acetylamino]-3methoxymethylthio-8-oxo-5-thia-1-aza-bicyclo[4.2.0]oct-2-ene-2-carboxylate]
- MIC [1, 4]: 1 pig/ml
- MIC [1, 5]: 1 μ/ml
- MIC (Staph. aureus resistant; [6]): 2 pig/ml
- MIC (Staph. aureus resistant; [7]): 4 μ/ml
- MIC (Staph. aureus DSM 1104; [8]): 0.5 pig/ml
- MIC (Staph. aureus DSM 1104; [9]): 0.5 μ/ml
- MIC (Escherichia coli TEM 1; [10]): 2 pig/ml
- MIC (Escherichia coli TEM 1; [11]): 2 μ/ml
- MIC (Staph. aureus 25768; [12]): 16 pig/ml
- MIC (Staph. aureus 25768; [13]): 32 μ/ml
- ED50 (E. coli 3981 TEM-1; 3981TEM1, po): 8.35 mg/kg
- ED50 (E. coli 3981 TEM-1; 3981TEM1, sc): 0.84 mg/kg
- half-life [2, 14]: 15.6 days
- half-life [2, 15]: 16.9 days
- half-life [3]: 0.2 days

Compound: COCSC1=C(C(=O)[O-])N2C(=O)[C@@H](NC(=O)/C(=N\OCC(=O)[O-])c3csc(N)n3)[C@H]2SC1.[K+].[K+] [Cephalosporin 1b, dipotassium (6R,7R)-7-[(Z)-2-(2-amino-thiazol-4-yl)-2-carboxy-methoximino-acetylamino]-3-methoxymethylthio-8-oxo-5-thia-1-aza-bicyclo[4.2.0]oct-2-ene-2-carboxylate]
- MIC [1, 4]: 2 pig/ml
- MIC [1, 5]: 2 μ/ml
- MIC (Staph. aureus resistant; [6]): 16 pig/ml
- MIC (Staph. aureus resistant; [7]): 32 μ/ml
- MIC (Staph. aureus DSM 1104; [8]): 4 pig/ml
- MIC (Staph. aureus DSM 1104; [9]): 4 μ/ml
- MIC (Escherichia coli TEM 1; [10]): 2 pig/ml
- MIC (Escherichia coli TEM 1; [11]): 2 μ/ml
- MIC (Staph. aureus 25768; [12]): >64 pig/ml
- MIC (Staph. aureus 25768; [13]): >64 μ/ml
- half-life [2, 14]: 16.6 days
- half-life [2, 15]: 17.5 days
- half-life [3]: 0.113 days

Compound: COCSC1=C(C(=O)O)N2C(=O)[C@@H](NC(=O)[C@H](N)c3ccccc3)[C@H]2SC1 [Cephalosporin 1c, (2′R,6R,7R)-7-(2′amino-2′-phenylacetamino)-3-methoxymethylthio-8-oxo-5-thia-1-aza-bicyclo[4.2.0]oct-2-ene-2-carboxylic acid]
- MIC [1, 4]: 4 pig/ml
- MIC [1, 5]: 4 μ/ml
- MIC (Staph. aureus resistant; [6]): 2 pig/ml
- MIC (Staph. aureus resistant; [7]): 8 μ/ml
- MIC (Staph. aureus DSM 1104; [8]): 0.2 pig/ml
- MIC (Staph. aureus DSM 1104; [9]): 0.5 μ/ml
- MIC (Escherichia coli TEM 1; [10]): >64 pig/ml
- MIC (Escherichia coli TEM 1; [11]): 32 μ/ml
- MIC (Staph. aureus 25768; [12]): 8 pig/ml
- MIC (Staph. aureus 25768; [13]): 32 μ/ml
- half-life [2, 14]: 7.12 days
- half-life [2, 15]: 7.54 days
